{
  "source": "patent EP2229935A1",
  "about": "“Peptide derivatives or pharmaceutically acceptable salts thereof, method for producing the same, use of said derivatives and pharmaceutical composition” (Nebolsin, Vladimir Evgenievich, priority 1997, dated 1999)",
  "key": {"P-450 and B5 cytochromes": {"system": "P-450 and B5 cytochromes", "test": "Hepatic content of P-450 and B5 cytochromes (microsomal liver fraction)", "assay_type": "in vivo, guinea pigs", "settings": "guinea pig liver microsomes; administered three times 72, 48 and 24 hours before", "procedure": "Change in hepatic monooxygenase system was studied on mongrel male guinea pigs with initial mass 250-300 g; each group included 12 animals. […]. The content of P-450 and […] cytochromes was measured according to the published method [Omura T., Scato R. The monooxide binding pigment of liver microsomes. 11. Solubilization, purification and properties. J. Chem. (1964), Vol. 239, pp. 2379-2385] in microsomal liver fraction, isolated using differential centrifugation method [Ahokas J., Pelkonen O., Karkin N. Charcaterisation of BP-hydroxylase of Trout-liver. Cancer Res. (1977), Vol. 37, pp. 3737-3743]. The priority method {Izotov M.V., Scherbakov V.M., Devichensky V.M. et al. The method of determining the content of P-450 cytochrome isoenzymes in liver microsomes. The inventor's certificate No 1,488,738. B.I. (1989), No 3.-6.06.09, ICI, 01. - No 33/15, No 33/48]. Microsomal protein content was determined using the modified Lowry method [Hartree E. Determination of protein: a modification of the Lowry method, that gives a linear photometric responces. Ann. Biochem. (1972), Vol. 48, pp. 422-427]."}, "[C^14]-arachidonic acid": {"system": "[C^14]-arachidonic acid", "test": "Metabolism of [C^14]-arachidonic acid in pulmonary tissue homogenate of treated mice", "assay_type": "in vivo, CBA male mice", "settings": "CBA mice lung homogenate; 80 µg/kg for three days", "procedure": "Studies were carried out on CBA male mice fed a standard vivarium ration. […] Then animals were sacrified, their lungs were taken out, frozen in liquid nitrogen, homogenized in a glass homogenizer manufactured by the Wheaton company (U.S.A.) at +4°C in 10 volumes 0.05 M Tris-HCl buffer. […] Densitometry of the autoradiochromatograms obtained on the X-ray films X-Omat AR (Kodak, U.S.A.) and HS 11 (ORWO, Germany) were performed on the KS 3 densiscan (Kipp and Zonnen, Holland). Quantative analysis of individual eucosanoids was carried out using radiometry of the fractions obtained with high performance liquid chromatography (the Gilson company HPLC-system, France; the Du Pont company ZORBAX C8 column, U.S.A.) and with elution of spots on TLC-plates."}, "[1]": {"system": "hepatic P-450 cytochrome system", "test": "Hexenal sleep duration in mice", "assay_type": "in vivo", "settings": "CBF1 mice, oral 3 days, control 25.91 ± 1.57", "procedure": "Change in Hexenal sleep (HS) duration is the in vivo measurable index of hepatic P-450 cytochrome system condition.\nStudies were carried out on male mice of the lines BALB/c*h75, C57B1/6, CBA, DBA/2, first generation CBF1 and BDF1 hybrides, with initial mass 18-20 g, each group including 10 mice; and on mongrel male guinea pigs with initial mass 250-300 g, each group including 24 animals. All the test compounds (from II to LII) were administered orally in drinking water and for three days at doses 50 and 500 µg/kg. Hexenal hydrochloride at a dose […] of animal mass was administered 24 hours after the last drug administration, except for line BALB/c*h75 mice, which were administered Hexenal at a dose 60 µg/kg at the same terms, and guinea pigs for which Hexenal dose was 30 µg/kg. HS duration was determined in minutes."}, "Male guinea pigs": {"system": "Male guinea pigs", "test": "Antigen-induced bronchospasm in actively sensitized guinea pigs", "assay_type": "in vivo", "settings": "for Bronchospasm (percent of the maximum value): sensitized guinea pigs", "procedure": "Antiasthmatic effect of the test compounds was studied using an antigen-induced bronchospasm model in actively sensitized guinea pigs according to the Andersson method [Andersson P. Antigen induced bronchial anaphylaxis in actively sensitized guinea pig. Allergy (1980), Vol. 35, pp. 65-71].\nMale guinea pigs were sensitized with intramuscular injection of 0.5 ml suspension comprising 20 micrograms ovalbumin (OVA, manufactured by the Sigma company [grade III]) and 100 mg Al(OH)3 per one animal. Anaphylaxis-provoking dose 150-200 µg/kg OVA in 0.1 ml normal saline was intravenously (v. jugularis) injected on day 26 after sensibilization. Bronchospasm induction and measuring external respiration parameters were carried out according to the method described in Yu-Hong L., Barnes P., Rogers D. Inhibition of neurogenic plasma exudation and bronchoconstriction by a K+ channel activator, BRL 38227, in guinea pig airways in vivo. Europ. J. Pharmacol. (?), Vol. 239, pp.257-259]. Measurement of respiration parameters was performed using a transducer (Ugo Basel, model 7020), connected with a cannula and a recorder (Millichrome), recording breathing amplitude. […] Efficacy of compounds was determined by change in bronchospasm value.\nInthal was used as a reference drug that was administered to animals at a dose 5 µg/kg according to the same dosage regimen as the test substances were administered. The control group of animals received equivalent amount of normal saline.\nGroups of animals: group 1 - control; group 2 - animals given Inthal; group 3 - animals given oral compound XLIV; group IV - animals given oral compound III; group 5 - animals given intratracheal compound III; group 6 - animals given compound XLIX, group 7 - animals given compound XXXI, group 8 - animals given compound XLVI; group 9 - animals given compound VI, group 10 - animals given compound XLVIII."}, "white mongrel male rats [2]": {"system": "white mongrel male rats", "test": "Paw edema induced by Freund's complete adjuvant", "assay_type": "in vivo", "settings": "rats, FCA edema; once 50 µg/kg 1 hour before edema induction", "procedure": "Experiment was carried out on white mongrel male rats weghing 280-300 g. The model of paw edema induced by Freund's complete adjuvant (FCA), was reproduced according to the method of Ezamuzie and Umezurike [Ezamuzie Ch., Umezurike C.C. Effect of histamine H2-receptor antagonists on acute inflammatory of the rat paw oedema. J. Pharmacol. (1989), Vol. 41, pp. 261-265]. Paw volume measurement was done using a plethysmograph (Ugo Basile). Inhibition of inflammatory reaction expressed in percent, as calculated according to the formula: 100-[(R-L(exper.))/(L):(R-L(control))/(L)x100](%) [formula] where R - the right paw volume, L - the left paw volume.\nEach group included 10 animals.\nGroup of animals: • Group 1 - control, animals were administered 0.5 ml of 1% starch solution. • Group 2 - animals were administered the compound XLVIII. • Group 3 - animals were administered the compound III. • Group 4 - animals were administered Naproxene."}, "white mongrel male rats [3]": {"system": "white mongrel male rats", "test": "Carrageenan paw edema, oral administration (series I)", "assay_type": "in vivo", "settings": "once 20 µg/kg 1 hour before edema induction", "procedure": "Experiment was carried out on white mongrel male rats weighing 280-300 g. Carrageenan-induced edema was caused according to the method of Winter et al. [[inter et al. In: De Rosa M., Giroud J.P., Willoughby D.A. Studies of the mediators of the acute inflammatory reponse induced in rats in different sites by carrageenan and turpentine. […] Paw volume measurement was done using a plethysmograph (Ugo Basile) 1, 3 and 4 hours after carrageenan administration. Inhibition of inflammatory reaction expressed in percent, was calculated according to the formula: 100-[(R-L(exper.))/(L):(R-L(control))/(L)x100](%) [formula] where R - the right paw volume, L - the left paw volume.\nSeries I of experiment. […] The reference drug Naproxene was once administered at a dose 20 µg/kg 1 hour before edema induction. Each group included 10 animals."}, "mongrel rats": {"system": "mongrel rats", "test": "Antiischemic activity: necrosis zone after coronary artery occlusion (myocardial infarction)", "assay_type": "in vivo", "settings": "4 hours after occlusion, single intraperitoneal immediately after occlusion, 1000 µg/kg", "procedure": "Antiischemic activity of a compound was assessed by an integral test, i.e. effect on the necrosis zone area following reproduction of myocardial infarction in mongrel rats weighing 250-300 g.\nEffect of a compound on the necrosis zone area was studied in 4 hours after arterial occlusion in rats using a differential indicator method [Sernov L.N., Gatsura V.V. A differential indicator method for determinig ischemic and necrotic zone in experimental myocardial infarction in rats. Bulletin of Experimental Biology and Medicine (1989), No 5, pp. 534-535]. All the painful manipulations were performed on animals under Ethaminal anesthesia (Ethaminal - 40 mg/kg intraperitoneally). Experiment was carried out in 15 hours after the last compound administration. Each group included 8 animals.\nGroups of animals: • Group 1 - intact control -administration of normal saline four times. • Groups 2 and 3 - oral administration of the compound III at doses respectively 50 and 500 µg/kg for 4 days. • Group 4 - single intraperitoneal administration of Nicorandil at a dose 1 mg/kg immediately after occlusion."}, "[4]": {"settings": "50 µg/kg per os, 72, 48 and 18 hours prior to bronchospasm induction"}},
  "note": "Marks after values point to notes of the source that are not given here.",
  "data": [
    {"smiles": "CCC1(c2ccccc2)C(=O)NC(=O)NC1=O", "note": "[Phenobarbital, reference compound]", "values": [
      {"measurement": "B5 /P-450", "setting": "P-450 and B5 cytochromes", "result": 0.81},
      {"measurement": "B5 cytochrome nM/mg of protein", "setting": "P-450 and B5 cytochromes", "result": "1.21 ± 0.10 nM/mg of protein"},
      {"measurement": "P-450B cytochromes nM/mg of protein", "setting": "P-450 and B5 cytochromes", "result": "0.76 ± 0.08 nM/mg of protein"},
      {"measurement": "P-450B/p-450L", "setting": "P-450 and B5 cytochromes", "result": 1.02},
      {"measurement": "P-450 cytochrome nM/mg of protein", "setting": "P-450 and B5 cytochromes", "result": "1.50 ± 0.09 nM/mg of protein"},
      {"measurement": "5-HETE+HHT, percent of AA conversion", "setting": "[C^14]-arachidonic acid", "result": "10.5 ± 0.26% of AA conversion"},
      {"measurement": "6-keto-PGF1α, percent of AA conversion", "setting": "[C^14]-arachidonic acid", "result": "4.12 ± 0.12% of AA conversion"},
      {"measurement": "12-, 15-HETE, percent of AA conversion", "setting": "[C^14]-arachidonic acid", "result": "27.1 ± 0.11% of AA conversion"},
      {"measurement": "PGE2, percent of AA conversion", "setting": "[C^14]-arachidonic acid", "result": "3.82 ± 0.14% of AA conversion"},
      {"measurement": "PGF2α, percent of AA conversion", "setting": "[C^14]-arachidonic acid", "result": "7.91 ± 0.08% of AA conversion"},
      {"measurement": "Phospholipids, percent of AA conversion", "setting": "[C^14]-arachidonic acid", "result": "8.18 ± 0.21% of AA conversion"},
      {"measurement": "TXB2, percent of AA conversion", "setting": "[C^14]-arachidonic acid", "result": "6.21 ± 0.18% of AA conversion"},
      {"measurement": "Unmetabolized AA, percent of AA conversion", "setting": "[C^14]-arachidonic acid", "result": "14.5 ± 0.28% of AA conversion"}
    ]},
    {"smiles": "CCCCCC(=O)NCCc1c[nH]c2ccccc12", "note": "[compound XXXI, N-HEXANOYLTRYPTAMINE]", "values": [
      {"measurement": "Hexenal sleep duration (minutes)", "setting": "[1]; 50 µg/kg", "result": "12.59 ± 0.88*** minutes"},
      {"measurement": "Hexenal sleep duration (minutes)", "setting": "[1]; 500 µg/kg", "result": "12.61 ± 1.45*** minutes"},
      {"measurement": "Bronchospasm (percent of the maximum value)", "setting": "Male guinea pigs; [4]", "result": "39.3 7.6* percent of the maximum value"}
    ]},
    {"smiles": "NC(CCC(=O)NCCc1c[nH]c2ccc(O)cc12)C(=O)O", "note": "[compound XLIX, γ -L-glutamylserotonine]", "values": [
      {"measurement": "Hexenal sleep duration (minutes)", "setting": "[1]; 50 µg/kg", "result": "19.68 ± 2.04** minutes"},
      {"measurement": "Bronchospasm (percent of the maximum value)", "setting": "Male guinea pigs; [4]", "result": "33.0 9.4* percent of the maximum value"}
    ]},
    {"smiles": "O=C([O-])c1cc(=O)c2c(OCC(O)COc3cccc4oc(C(=O)[O-])cc(=O)c34)cccc2o1.[Na+].[Na+]", "note": "[Inthal, reference compound]", "values": [
      {"measurement": "decrease in bronchospasm value", "setting": "Male guinea pigs; as compared with the control values", "result": "~50", "unit": "%"},
      {"measurement": "Bronchospasm (percent of the maximum value)", "setting": "Male guinea pigs; 5 mg/kg, 72, 48 and 18 hours prior to bronchospasm induction", "result": "40.7 3.4* percent of the maximum value"}
    ]},
    {"smiles": "COc1ccc2cc([C@H](C)C(=O)O)ccc2c1", "note": "[Naproxene, reference compound]", "values": [
      {"measurement": "Inflammation inhibition (%)", "setting": "white mongrel male rats [2]", "result": 44, "unit": "%"},
      {"measurement": "Volume increment", "setting": "white mongrel male rats [2]", "result": "0.45 ± 0.02"},
      {"measurement": "Volume of paws (conditional units) Right", "setting": "white mongrel male rats [2]", "result": "1.75 ± 0.54", "unit": "conditional units"},
      {"measurement": "Volume of paws (conditional units) left", "setting": "white mongrel male rats [2]", "result": "1.30 ± 0.25", "unit": "conditional units"},
      {"measurement": "Inflammation inhibition (%)", "setting": "white mongrel male rats [3]", "result": 37, "unit": "%"},
      {"measurement": "Volume increment", "setting": "white mongrel male rats [3]", "result": "0.48 ± 0.02"},
      {"measurement": "Volume of paws (conditional units) Right", "setting": "white mongrel male rats [3]", "result": "1.82 ± 0.54", "unit": "conditional units"},
      {"measurement": "Volume of paws (conditional units) left", "setting": "white mongrel male rats [3]", "result": "1.34 ± 0.25", "unit": "conditional units"}
    ]},
    {"smiles": "O=C(NCCO[N+](=O)[O-])c1cccnc1", "note": "[Nicorandil, reference compound]", "values": [
      {"measurement": "Ischemia zone, percent to the total myocardial mass", "setting": "mongrel rats", "result": "25,0 ± 1,9%"},
      {"measurement": "Necrosis zone percent to myocardial zone", "setting": "mongrel rats", "result": "44,3 ± 5,0%"},
      {"measurement": "Necrosis zone, percent to the total myocardial mass", "setting": "mongrel rats", "result": "11,3 ± 1,6%"}
    ]}
  ]
}
